According to patent US5219841A, “Treatment of arrhythmia by administration of Ap4 A” (Fujirebio, Inc., priority 1989, dated 1993):
“Also recorded” adds a separate entry of the source.

What was measured:
[1] = system: adenosine diphosphate (ADP)-stimulated human platelet aggregation; conditions: Luthje and Ogiluie 1984; cited from earlier work
[2] = system: baby hamster kidney cells; conditions: Grummt 1978; cited from earlier work
[3] = Half lethal dose, Lichfield-Wilcoxon method; conditions: in vivo, iv, rat
Source text: Ap4 A is a novel type of nucleotide discovered in human platelets in a recent year and has the following chemical structure: [drawing 1] The active ingredient Ap4 A of the pharmaceutical composition according to the present invention is thus preferably in a form of a pharmaceutically acceptable salt thereof such as sodium salt, or it may be in a form of free acid thereof. Ap4 A can be produced by a conventional organic synthesis or by an enzymatic synthesis with, for example, leucyl tRNA synthetase derived from thermophilic Bacillus stearothermoohillus (Japanese Patent Application Laid-Open (KOKAI) No. 62-278992; U.S. Pat. NO. 4886749; EP-A-247819), using ATP as the starting material in either method. […] J. Physiol., 254, 828-832 (1988)].

guinea pig heart = experiment: Coronary vasodilative effect, Langendorff perfusion of isolated heart
Description: An experiment was performed by a modification of the method of Aronson and Serlick [Toxicol. Appl. Pharmac., 38, 479-488 (1976) and 39, 157-176 (1977); Biochem. Pharmac. 26, 2297-2305 (1977)]. The guinea pig heart removed was started perfusing at the origin of the aorta by the Langendorff perfusion method. Perfusion was carried out at 37° C. and 14 ml/min of flow rate with a peristalic pump (TAIYO TYPE 1500N; Japan) in Krebs-Henseleit solution (KH: NaCl, 118 mM; phosphate, 1.2 mM; NaHCO3, 25 mM; glucose, 10 mM; KCl, 4.7 mM; CaCl2, 2.5 mM; and MgSO4, 1.2 mM; pH 7.4; bubbling with 95% O2 - 5% CO2). After the initiation of the perfusion, an incision was made in the left auricle and a cannula was inserted into the left ventricle via the left atrium to measure the left ventricular pressure with a pressure transducer (Nihon Kohden Co.; Model TP-200T). The differential value of the left ventricular pressure (dp/dt) was measured with a cardiotachometer (Nihon Kohden Co.; Model AT-601G). The perfusion pressure was determined with a pressure transducer connected to the aortic cannula. Ap4 A was dissolved in KH at various concentrations and administered to the perfusion system in a single dose of 1-100 μg/0.1 ml/5 sec or by a continuous infusion of 1-100 μg/5ml/15 min.

[4] = system: ouabain-induced cardiac arrhythmia; experiment: Ouabain-induced arrhythmia model; format: in vivo, guinea pig; conditions: for antiarrhythmic effect: onset of P-P interval prolongation, T-P overlapping, ventricular arrhythmia, ventricular fibrillation and cardiac arrest: i.v. infusion over 5 min: ATP 10 or 30 mg/kg, Ap4 A 30 mg/kg, disopyramide 5 mg/kg, ouabain 7 μg/kg/min
Description: With a guinea pig (b.w. 450 g) placed under urethane anesthesia (1.1 g/kg), its femoral vein, jugular vein and carotid artery were cannulated. Ap4 A, ATP or disopyramide was injected into the femoral vein and ouabain into the jugular vein through each cannula, while the carotid artery was utilized for a blood pressure monitoring. Changes associated with the administration of the drug were assessed by monitoring electrocardiogram (ECG), blood pressure, mean blood pressure and heart rate (Nihon Kohden Co.; Models AB620G, AP601G and AT601G). ECG was recorded in accordance with the lead II.
Ouabain-induced cardiac arrhythmia model was prepared by continuous infusion of ouabain at a rate of 7 μg/kg/min via the jugular vein. Each drug was administered by intravenous infusion over a period of 5 minutes at the following dose: ATP, 10 or 30 mg/kg; Ap4 A, 30 mg/kg; and disopyramide, 5 mg/kg. The drug was administered simultaneously with the infusion of ouabain. The antiarrhythmic effect of the drug tested was assessed in terms of the total dose of ouabain given until onset of each of the following parameters: P-P interval prolongation, T-P overlapping, ventricular arrhythmia, ventricular fibrillation and cardiac arrest.

[5] = system: ADP-induced platelet aggregation; experiment: ADP-induced platelet aggregation in platelet-rich plasma; format: cell-based, rabbit; conditions: ADP 5 μM
Description: Blood was collected from the carotid artery of an unanesthetized rabbit into a syringe containing one volume of 3.8% sodium citrate per nine volumes of blood. The citrated blood was centrifuged at 1100 rpm for 15 minutes, and the supernatant was obtained as platelet-rich plasma (PRP). To 200 μl of PRP in an aggregometer, 10 μl of ATP or Ap4 A solution was added and the mixture was incubated at 37° C. for 10 minutes, followed by addition of 10 μl of 0.1 mM ADP solution (final concentration: 5μM) to induce and measure the aggregation of platelets. Results obtained for ATP are shown in FIG. 5A and those for Ap4 A in FIG. 5B.

[6] = system: adrenaline-induced cardiac arrhythmia; experiment: Adrenaline-induced arrhythmia model; format: in vivo, guinea pig; conditions: for incidence of extrasystole: 10 mg/kg/5min i.v., adrenaline 10 μg/kg, control value 39%; for antiarrhythmic effect (reduction of incidence of extrasystole): i.v. infusion over 5 min: ATP 3 or 10 mg/kg, Ap4 A 3 or 10 mg/kg, propranolol 1 mg/kg
Description: With a guinea pig (b.w. 450 g) placed under urethane anesthesia (1.1 g/kg), its femoral vein, jugular vein and carotid artery were cannulated. Ap4 A, ATP or propranolol was injected into the femoral vein and adrenaline into the jugular vein through each cannula, while the carotid artery was utilized for a blood pressure monitoring. Changes associated with the administration of the drug were monitored in the same manner as above (B), and ECG was recorded in accordance with the lead II.
Adrenaline-induced cardiac arrhythmia model was prepared by injecting adrenaline (10 μg/kg) into the jugular vein over 5 seconds. Each drug was administered by intravenous infusion over a period of 5 minutes at the following dose: ATP, 3 or 10 mg/kg; Ap4 A, 3 or 10 mg/kg; propranolol, 1 mg/kg. Adrenaline was administered in a single dose 4 minutes after administration of the drug tested. The grading of arrhythmia was assessed in terms of the incidence of extrasystole.

hepatocytes = conditions: Rapaport and Zamecnick 1976; cited from earlier work
guinea pig right atrium = experiment: Effect on heart rate of isolated guinea pig right atrium; conditions: for change of heart rate (bradycardic effect): single dose, 10^-7 to 10^-4 M, KH solution, 31° C.
Description: A guinea pig (b.w. 450 g) was stunned and was immediately removed its heart to excise the right atrium therefrom. The right atrium was then suspended in a Magnus tube (30 ml) filled with Krebs-Henseleit (KH) solution which was maintained at 31° C. constantly aerating with a mixture of 95% O2 --5% CO2 therein. After the KH solution was changed with the fresh one at 15-minutes intervals and the heart rate of the right atrium was stabilized in 60-90 minutes, Ap4 A or ATP which was prepared at different concentrations was added to the KH solution in a single dose to determine the change of heart rate. Drug concentrations of 10^-4, 10^-5, 10^-6 and 10^-7 M were employed in this experiment. The heart rate was determined with a cardiotachometer (Nihon Kohden Co.; Model AT601G; Japan) and an isometric converter (Nihon Kohden Co.; Model TB-651T), with a 1-g weight load.

rabbit mesenteric artery = conditions: Busse et al. 1988; cited from earlier work
platelet aggregation = experiment: Platelet aggregation by the drug itself in absence of ADP; format: cell-based, rabbit
[7] = Fujii and Nakamura 1977; cited from earlier work
arrhythmia = conditions: cited from earlier work; for antiarrhythmic activity: Somlo 1955, Komor and Garas 1955
[8] = single dose 1-100 μg/0.1 ml/5 sec
[9] = 3×10^-5 M or more, absence of ADP

Nc1ncnc2c1ncn2[C@@H]1O[C@H](COP(=O)(O)OP(=O)(O)OP(=O)(O)OP(=O)(O)OC[C@H]2O[C@@H](n3cnc4c(N)ncnc43)[C@H](O)[C@@H]2O)[C@@H](O)[C@H]1O [Ap4 A, diadenosine 5',5'''-P^1,P^4 -tetraphosphate]
effect on ADP-stimulated human platelet aggregation [1]: inhibitory effect
DNA synthesis [2]: enhancement of DNA synthesis
LD50 [3]: 102 mg/kg
perfusion pressure and left ventricular pressure (guinea pig heart; continuous infusion 1-100 μg/5ml/15 min): the perfusion pressure and the left ventricular pressure decreased depending on the dose of Ap4 A
dose showing coronary vasodilative effect without affecting heart rate or left ventricular pressure (guinea pig heart; e.g.): 1 µg
heart rate (guinea pig heart; [8]): marked decrease of heart rate
left ventricular pressure (guinea pig heart; [8]): fell transiently after administration and subsequently it was elevated
perfusion pressure (guinea pig heart; [8]): dose-dependent fall of perfusion pressure; also recorded: observed from the lowest dose of Ap4 A
perfusion pressure (coronary vasodilative activity) (guinea pig heart; single or continuous dose): the perfusion pressure decreased depending on the dose
antiarrhythmic effect compared with ATP ([4]; 30 mg/kg i.v., same dose of ATP): practically the same as that of ATP, or slightly lower; also recorded: virtually comparable with or slightly inferior to that of ATP
antiarrhythmic effect: onset of P-P interval prolongation, T-P overlapping, ventricular arrhythmia, ventricular fibrillation and cardiac arrest [4]: inhibited the onsets of such parameters as P-P interval prolongation, T-P overlapping, ventricular arrhythmia, ventricular fibrillation and cardiac arrest; also recorded: inhibited all these parameters
inhibition of ADP-induced platelet aggregation ([5]; 3×10^-5 M to 3×10^-4 M, in words): markedly inhibited ADP-induced platelet aggregation with a dose-dependency; also recorded: inhibited by Ap4 A with a dose-dependency
inhibition at 300 µM ([5]; Oryctolagus cuniculus, Platelet, 3×10^-4 M, rabbit PRP, 37° C., 10 min preincubation, vs control): 76%
inhibition at 30 µM ([5]; Oryctolagus cuniculus, Platelet, 3×10^-5 M, rabbit PRP, 37° C., 10 min preincubation, vs control): 21%
incidence of extrasystole [6]: 8.0%
antiarrhythmic effect (reduction of incidence of extrasystole) [6]: reduced the incidence of extrasystole with a dose-dependency; also recorded: dose-dependent reduction of the incidence of extrasystole
antiarrhythmic effect compared with ATP ([6]; i.v., incidence of extrasystole): somewhat inferior to that of ATP; also recorded: somewhat weaker than that of ATP
growth of hepatocytes (hepatocytes): promotion of the growth of hepatocytes
relative potency vs ATP (change of heart rate) (guinea pig right atrium; 10^-4 M): 2.1 -fold
relative potency vs ATP (change of heart rate) (guinea pig right atrium; 10^-5 M): 1.5 -fold
relative potency vs ATP (change of heart rate) (guinea pig right atrium; 10^-6 M): 1.5 -fold
potency compared with ATP (percent change of heart rate) (guinea pig right atrium; in words): prone to be more potent than ATP; also recorded: tends to be greater than that of ATP
change of heart rate (bradycardic effect) (guinea pig right atrium): reduced the heart rate with a dose-dependency; also recorded: decreased the atrial heart rate with a dose-dependency
vasodilative action (rabbit mesenteric artery): vasodilative action
platelet aggregation by the drug itself (platelet aggregation; [9]): did not cause platelet aggregation at all
platelet aggregation by the drug itself (platelet aggregation; even at 3×10^-4 M): no activity of platelet aggregation; also recorded: no effect of the platelet aggregation

Nc1ncnc2c1ncn2[C@@H]1O[C@H](COP(=O)(O)OP(=O)(O)OP(=O)(O)O)[C@@H](O)[C@H]1O [ATP, Adenosine 5'-triphosphate, reference compound]
antiarrhythmic effect: onset of P-P interval prolongation, T-P overlapping, ventricular arrhythmia, ventricular fibrillation and cardiac arrest [4]: has an antiarrhythmic activity; also recorded: inhibited all these parameters
incidence of extrasystole [6]: 5.3%
antiarrhythmic effect (reduction of incidence of extrasystole) [6]: reduced the incidence of extrasystole with a dose-dependency; also recorded: dose-dependent reduction of the incidence of extrasystole
change of heart rate (bradycardic effect) (guinea pig right atrium): reduced the heart rate with a dose-dependency; also recorded: decreased the atrial heart rate with a dose-dependency
vasodilation and other pharmacological effects [7]: vasodilation; also recorded: enhancement of in vivo metabolic activity; also recorded: increase in muscle contraction; also recorded: rise of efficiency of the neural transmission
antiarrhythmic activity (arrhythmia): possess the antiarrhythmic activity
effect on paroxysmal supraventricular tachycardia (arrhythmia; clinical, Otsuka et al. 1986): successful arrest of the paroxysmal supraventricular tachycardia; also recorded: efficacy against the paroxysmal supraventricular tachycardia which is insusceptible to other antiarrhythmic drugs such as verapamil, digoxin and ajimaline
platelet aggregation by the drug itself (platelet aggregation; [9]): caused a dose-dependent aggregation of platelets
minimal effective concentration (platelet aggregation; Oryctolagus cuniculus, Platelet, absence of ADP, read-out: concentration causing dose-dependent aggregation of platelets): ≥ 30 µM
platelet-aggregating activity (platelet aggregation; in words, found by the inventors): has platelet-aggregating activity

CC(C)NCC(O)COc1cccc2ccccc12 (stereo not drawn) [propranolol, reference compound]
antiarrhythmic effect (reduction of incidence of extrasystole) [6]: reduced the incidence of extrasystole with a dose-dependency; also recorded: dose-dependent reduction of the incidence of extrasystole

CC(C)N(CCC(C(N)=O)(c1ccccc1)c1ccccn1)C(C)C (stereo not drawn) [disopyramide, reference compound]
antiarrhythmic effect: onset of P-P interval prolongation, T-P overlapping, ventricular arrhythmia, ventricular fibrillation and cardiac arrest [4]: has an antiarrhythmic activity; also recorded: inhibited all these parameters

Nc1ncnc2c1ncn2[C@@H]1O[C@H](CO)[C@@H](O)[C@H]1O [adenosine]
antiarrhythmic activity (arrhythmia): possess the antiarrhythmic activity
